Measurements published in PMC9011219 (Annals of Translational Medicine, 2022).

Experiments:
BuChE = BuChE (Equus caballus, UniProt P81908); assay: Ellman assay; assay type: biochemical
AChE = AChE (Electrophorus electricus, UniProt O42275); assay: Ellman assay; assay type: biochemical
Chain of AChE (O42275 24-633): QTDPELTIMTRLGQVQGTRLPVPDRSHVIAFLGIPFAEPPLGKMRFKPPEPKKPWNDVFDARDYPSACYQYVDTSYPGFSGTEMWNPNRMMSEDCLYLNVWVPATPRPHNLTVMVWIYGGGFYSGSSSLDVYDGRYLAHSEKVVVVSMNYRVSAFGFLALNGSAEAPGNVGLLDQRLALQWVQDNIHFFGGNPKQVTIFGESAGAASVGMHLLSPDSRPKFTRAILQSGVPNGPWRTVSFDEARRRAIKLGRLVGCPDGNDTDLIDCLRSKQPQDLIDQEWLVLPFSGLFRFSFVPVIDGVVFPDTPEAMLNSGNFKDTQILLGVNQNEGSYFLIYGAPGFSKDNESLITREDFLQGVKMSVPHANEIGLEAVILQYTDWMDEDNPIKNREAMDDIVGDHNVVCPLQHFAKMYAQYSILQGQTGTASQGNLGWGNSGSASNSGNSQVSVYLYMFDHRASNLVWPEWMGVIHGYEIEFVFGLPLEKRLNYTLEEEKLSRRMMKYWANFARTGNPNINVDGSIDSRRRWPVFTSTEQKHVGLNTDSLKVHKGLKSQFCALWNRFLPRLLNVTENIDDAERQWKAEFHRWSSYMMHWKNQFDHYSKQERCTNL

Chain of BuChE (P81908 whole entry): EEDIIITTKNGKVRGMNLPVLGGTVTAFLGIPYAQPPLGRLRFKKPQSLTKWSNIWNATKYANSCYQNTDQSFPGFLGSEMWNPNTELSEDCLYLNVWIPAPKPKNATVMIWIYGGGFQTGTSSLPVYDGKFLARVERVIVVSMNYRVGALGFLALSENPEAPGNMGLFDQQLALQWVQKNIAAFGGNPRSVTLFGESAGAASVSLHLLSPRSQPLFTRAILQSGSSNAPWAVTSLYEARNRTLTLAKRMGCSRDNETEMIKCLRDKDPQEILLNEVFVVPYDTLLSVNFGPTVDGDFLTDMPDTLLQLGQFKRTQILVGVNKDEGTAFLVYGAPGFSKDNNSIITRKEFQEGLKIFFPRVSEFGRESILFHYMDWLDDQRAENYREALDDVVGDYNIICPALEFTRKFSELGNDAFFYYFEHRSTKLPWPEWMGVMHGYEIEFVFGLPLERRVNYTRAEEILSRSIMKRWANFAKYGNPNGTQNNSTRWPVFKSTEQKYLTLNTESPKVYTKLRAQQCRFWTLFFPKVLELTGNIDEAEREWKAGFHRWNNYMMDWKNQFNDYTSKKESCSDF

Row | SMILES | IC50 (BuChE) [µM] | IC50 (AChE) [µM]
1 | CN(C)C(=O)Oc1ccc2[nH]cc(CCNC(=O)CNc3cccc4cccnc34)c2c1 [b4, 3-(2-(2-(quinolin-8-ylamino)acetamido)ethyl)-1H-indol-5-yl dimethylcarbamate] | 0.9 ± 0.1 | 11.2 ± 0.3
2 | O=C(CNc1cccc2cccnc12)NCCc1c[nH]c2ccccc12 [b1, N-(2-(1H-indol-3-yl)ethyl)-2-(quinolin-8-ylamino) acetamide] |  | 11.2 ± 0.4
3 | c1cnc2c(NCCc3c[nH]c4ccccc34)cccc2c1 [c1, N-(2-(1H-indol-3-yl)ethyl) quinolin-8-amine] | 13.5 ± 0.4 | 32.7 ± 1.4
4 | CN(C)C(=O)Oc1ccc2[nH]cc(CCNc3cccc4cccnc34)c2c1 [c4, 3-(2-(quinolin-8-ylamino)ethyl)-1H-indol-5-yl dimethylcarbamate] | 0.9 ± 0.1 | 
5 | COc1ccc2[nH]cc(CCNC(=O)CNc3cccc4cccnc34)c2c1 [b2, N-(2-(5-methoxy-1H-indol-3-yl)ethyl)-2-(quinolin-8-ylamino) acetamide] |  | 13 ± 0.2
6 | CCN(C)C(=O)Oc1ccc2[nH]cc(CCNC(=O)Nc3cccc4cccnc34)c2c1 [a5, 3-(2-(3-(quinolin-8-yl)ureido)ethyl)-1H-indol-5-yl ethyl (methyl) carbamate] | 2.6 ± 0.4 | 
7 | O=C(NCCc1c[nH]c2ccccc12)Nc1cccc2cccnc12 [a1, 1-(2-(1H-indol-3-yl)ethyl)-3-(quinolin-8-yl) urea] | 10.3 ± 0.7 | 
8 | CCN(C)C(=O)Oc1ccc2[nH]cc(CCNC(=O)CNc3cccc4cccnc34)c2c1 [b5, 3-(2-(2-(quinolin-8-ylamino)acetamido)ethyl)-1H-indol-5-yl ethyl (methyl) carbamate] | 0.8 ± 0.1 | 13.7 ± 0.6
9 | COc1ccc2[nH]cc(CCNc3cccc4cccnc34)c2c1 [c2, N-(2-(5-methoxy-1H-indol-3-yl)ethyl) quinolin-8-amine] | 4.5 ± 0.3 | 
10 | O=C(CNc1cccc2cccnc12)NCCc1c[nH]c2ccc(O)cc12 [b3, N-(2-(5-hydroxy-1H-indol-3-yl)ethyl)-2-(quinolin-8-ylamino) acetamide] |  | 4.34 ± 0.1
11 | O=C(NCCc1c[nH]c2ccc(O)cc12)Nc1cccc2cccnc12 [a3, 1-(2-(5-hydroxy-1H-indol-3-yl)ethyl)-3-(quinolin-8-yl) urea] | 8.78 ± 0.3 | 36.3 ± 0.7
12 | COc1ccc2[nH]cc(CCNC(=O)Nc3cccc4cccnc34)c2c1 [a2, 1-(2-(5-methoxy-1H-indol-3-yl)ethyl)-3-(quinolin-8-yl) urea] |  | 29.2 ± 1.2
13 | Oc1ccc2[nH]cc(CCNc3cccc4cccnc34)c2c1 [c3, 3-(2-(quinolin-8-ylamino)ethyl)-1H-indol-5-ol] | 4.3 ± 0.4 | 
14 | CN(C)C(=O)Oc1ccc2[nH]cc(CCNC(=O)Nc3cccc4cccnc34)c2c1 [a4, 3-(2-(3-(quinolin-8-yl)ureido)ethyl)-1H-indol-5-yl dimethylcarbamate] | 3.3 ± 0.2 | 35.6 ± 0.6
15 | CCN(C)C(=O)Oc1ccc2[nH]cc(CCNc3cccc4cccnc34)c2c1 [c5, 3-(2-(quinolin-8-ylamino)ethyl)-1H-indol-5-yl ethyl (methyl) carbamate] | 1.1 ± 0.1 | 25.1 ± 1.7
